According to patent publication US20170307610A1, “COMPOUNDS THAT BIND DYSTROGLYCAN AND USES THEREOF” (OREGON HEALTH & SCIENCE UNIVERSITY, priority 2014, published 2017):
Peptide text beside a SMILES is read from it. * marks the point of attachment. Cbz = O=C(OCc1ccccc1)*

Tests used:
Format in all cases: cell-based, mouse
E3D1 MECs [1] = assay: Steady-state laminin internalization, flow cytometry; conditions: 18 hrs; for MFI of steady-state laminin endocytosis in presence of MMP inhibitor: GM6001 50 μM (vehicle 20.2±1.82, n=4), BB2416 5 μM (vehicle 20.85, n=2); for effect of MMP inhibitor on steady-state laminin endocytosis: GM6001 50 μM, BB2416 5 μM
Procedure: Endocytic internalization of laminin was confirmed by multiple methods. Laminin was labeled with the pH-sensitive fluorescent label CypHer-5 (CyPher-Ln) to exclusively image internalized laminin in attached, living cells. The fluorophore CypHer-5 is non fluorescent at pH 7.4 and maximally fluorescent at pH 5.5, permitting fluorescence detection of laminin within intracellular acidic vesicles (pH 4.8-6.0). Following overnight incubation of MECs with CypHer-Ln, live cell imaging detected bright fluorescent vesicles moving rapidly within the cytoplasm (FIG. 3A). Intracellular laminin within the cytoplasm was also independently observed via removal of surface bound laminin followed by confocal imaging. MECs were exposed to 10 μg/ml Rhod-Ln for 18 hrs, trypsinized, washed with PBS/EDTA to remove surface-bound laminin, allowed to re-attach, and stained with the membrane marker FITC-concanavalin A (conA). […] This method of cell treatment permitted a quantitative, flow cytometry-based assay of laminin internalization. In this assay, cells incubated with Rhod-Ln were trypsinized, washed (as in FIG. 3B), and the remaining internal Rhod-Ln fluorescence quantified by flow cytometry. Using this assay, laminin internalization was confirmed in diverse cell types including in primary mammary epithelial cultures, mammary epithelial cell lines (E3D1, MEpG), […] fibroblasts (NIH 3T3 cells), primary astrocytes, and human cancer cell lines (breast and glioma).
(§1) To explore the dynamics of laminin internalization, steady-state time course experiments (measuring internalization in the continuous presence of labeled laminin) and pulsed time course experiments were performed. In pulsed time course experiments, the cells were exposed to exogenous Rhod-Ln at 4° C. to prevent internalization, excess unbound Rhod-Ln was washed away, and then cells were returned to 37° C. to allow synchronized internalization and trafficking to proceed. […] Following pulsed and synchronized laminin exposure, Rhod-Ln was again observed to internalize within 1 hour, but reached a maximum at 8 hours, after which the levels of internal laminin declined (FIG. 4A). After 24 hours, internal Rhod-Ln levels declined to ˜37% of the maxima, indicating degradation (MFI: 315±3.5 to 119±11.5). To determine if laminin was degraded using classical degradation pathways, pulsed time course experiments in the presence of leupeptin (lysosome inhibitor) or […] (proteasome inhibitor) were performed.
Laminin internalization could be mediated by either receptor-dependent or receptor independent mechanisms (e.g. pinocytosis). Steady-state laminin internalization was measured using flow cytometry in the presence of potential inhibitors and compared to internalization of 500S FITC-dextran, a molecule of similar molecular size to laminin known to be endocytosed by receptor-independent mechanisms. The specific inhibitor of dynamin, dynasore (Macia E et al, Dev Cell, 839-850 (2006); incorporated by reference herein), inhibited internalization of laminin by >75% (FIG. 6A). Under hypertonic sucrose, a condition known to inhibit receptor-mediated endocytosis (Heuser J E and Anderson R G, J Cell Biol 108, 389-400 (1989); incorporated by reference herein) laminin internalization was reduced by 65% (FIG. 6A). Addition of heparin, a molecule known to bind the laminin LG4-5 domain (Harrison D et al, J Biol Chem 282, 11573-11581 (2007); incorporated by reference herein), decreased laminin internalization by 69% relative to controls (FIG. 6A). […] Specifically, under steady state, laminin internalization was nearly linear throughout the 24 hour time course, whereas dextran internalization plateaued after 16 hrs.
Flow Cytometry—Cells were plated in 12 well plates at 200,000 cells/well. The following day, media was changed to serum-free media with or without 10 μg/ml rhodamine laminin or 40 μg/ml FITC-dextran (500S-Sigma-Aldrich Corp., St. Louis, Mo., USA). […]

E3D1 MECs [2] = assay: FITC-dextran (500S) internalization, flow cytometry; conditions: steady state, 24 hour time course
Procedure: Laminin internalization could be mediated by either receptor-dependent or receptor independent mechanisms (e.g. pinocytosis). Steady-state laminin internalization was measured using flow cytometry in the presence of potential inhibitors and compared to internalization of 500S FITC-dextran, a molecule of similar molecular size to laminin known to be endocytosed by receptor-independent mechanisms. The specific inhibitor of dynamin, dynasore (Macia E et al, Dev Cell, 839-850 (2006); incorporated by reference herein), inhibited internalization of laminin by >75% (FIG. 6A). Under hypertonic sucrose, a condition known to inhibit receptor-mediated endocytosis (Heuser J E and Anderson R G, J Cell Biol 108, 389-400 (1989); incorporated by reference herein) laminin internalization was reduced by 65% (FIG. 6A). Addition of heparin, a molecule known to bind the laminin LG4-5 domain (Harrison D et al, J Biol Chem 282, 11573-11581 (2007); incorporated by reference herein), decreased laminin internalization by 69% relative to controls (FIG. 6A). […]
Flow Cytometry—Cells were plated in 12 well plates at 200,000 cells/well. […] Using a BD FACScan flow cytometer (BD Biosciences, San Jose, Calif., USA), 10,000 cells/well were counted, background fluorescence from the cell counts with no added laminin subtracted and the mean fluorescence intensity values reported. […]

E3D1 MECs [3] = assay: Pulsed time course of Rhod-Ln internalization, flow cytometry; conditions: pulsed, 24 hrs post laminin labeling, n=4; for MFI of internal Rhod-Ln in presence of inhibitor: vehicle 105.5±3
Procedure: as §1
Laminin labeling—Laminin-111 (1 mg) (Sigma-Aldrich Corp., St. Louis, Mo., USA) was dialyzed twice overnight against 500 ml of PBS with 10 μM CaCl2. The dialyzed laminin was then reacted with 10 μg NHS-rhodamine, or a 50 fold molar excess of NHS409 CypHer5 (GE) for 2 hr on ice, followed by dialysis twice overnight against 500 ml of PBS with 10 μM CaCl2.
Flow Cytometry—Cells were plated in 12 well plates at 200,000 cells/well. The following day, media was changed to serum-free media with or without 10 μg/ml rhodamine laminin or 40 μg/ml FITC-dextran (500S-Sigma-Aldrich Corp., St. Louis, Mo., USA). Unless otherwise indicated, cells were incubated 18-24 hrs, washed once with PBS, and cells trypsinized. Cells were washed in 5 ml cold PBS/1 mM EDTA, pelleted, and resuspended in 1 ml PBS/1 mM EDTA. Using a BD FACScan flow cytometer (BD Biosciences, San Jose, Calif., USA), 10,000 cells/well were counted, background fluorescence from the cell counts with no added laminin subtracted and the mean fluorescence intensity values reported. Graphed data are compiled from duplicate wells from each experiment with a minimum of three separate experiments, unless indicated otherwise.

[4] = Mus musculus, steady-state, 10 μg/ml Rhod-Ln, 40 μM dynasore, 320 mM sucrose, 100 μg/ml heparin

## heparin
E3D1 MECs [1]; steady-state, 10 μg/ml Rhod-Ln, 40 μM dynasore, 320 mM sucrose, 100 μg/ml heparin
  inhibition of laminin internalization: 69%

## FITC-dextran
E3D1 MECs [2]
  time to plateau of dextran internalization: > 16 h

## OC[C@H]1O[C@@](CO)(O[C@H]2O[C@H](CO)[C@@H](O)[C@H](O)[C@H]2O)[C@@H](O)[C@@H]1O [sucrose]
E3D1 MECs [1]; [4]
  inhibition at 320000 µM: 65%

## O=C(N/N=C/c1ccc(O)c(O)c1)c1cc2ccccc2cc1O [dynasore]
E3D1 MECs [1]; [4]
  inhibition at 40 µM: > 75%

## CC(=O)N[C@@H](CC(C)C)C(=O)N[C@@H](CC(C)C)C(=O)N[C@H](C=O)CCCNC(=N)N [leupeptin]
E3D1 MECs [3]
  increase in internal Rhod-Ln compared to vehicle controls: 153%
  MFI of internal Rhod-Ln in presence of inhibitor: 266±11.2

## CC(C)C[C@@H](C=O)NC(=O)[C@H](CC(C)C)NC(=O)[C@H](CC(C)C)NC(=O)OCc1ccccc1 [MG-231] (Cbz-Leu-Leu-Leu-aldehyde)
E3D1 MECs [3]
  increase in internal Rhod-Ln compared to vehicle controls: 59%
  MFI of internal Rhod-Ln in presence of inhibitor: 167.5±7

## CNC(=O)[C@@H](NC(=O)[C@H](CC(C)C)[C@H](O)C(=O)NO)C(C)(C)C [BB2416]
E3D1 MECs [1]
  MFI of steady-state laminin endocytosis in presence of MMP inhibitor: 20.46
  effect of MMP inhibitor on steady-state laminin endocytosis: no significant effect

## CNC(=O)[C@H](Cc1c[nH]c2ccccc12)NC(=O)[C@@H](CC(=O)NO)CC(C)C [GM6001]
E3D1 MECs [1]
  MFI of steady-state laminin endocytosis in presence of MMP inhibitor: 18.62±1
  effect of MMP inhibitor on steady-state laminin endocytosis: no significant effect
